Test: xn = mol fraction of the nth substance listed
Settings: 101 kPa, Liquid, Alternating current cell with electrodes

CNC(C)=O [N-methylacetamide] + CC(=O)N(C)C
electrical conductivity [S/m]
Settings	303.15 K	313.15 K	323.15 K	333.15 K	343.15 K	353.15 K	363.15 K	373.15 K	383.15 K	393.15 K
x1 = 0.1041	0.0107	0.0131	0.0151	0.0175	0.0202	0.0234	0.0269	0.0305	0.0344	0.0396
x1 = 0.2077	0.0173	0.0201	0.023	0.0261	0.0299	0.0349	0.0413	0.049	0.0567	0.0641
x1 = 0.3056	0.0162	0.0192	0.0229	0.0273	0.0331	0.0403	0.0495	0.06	0.0708	0.081
x1 = 0.4019	0.0203	0.0241	0.0285	0.0335	0.0394	0.0464	0.0548	0.0646	0.075	0.0851
x1 = 0.506	0.0239	0.0287	0.034	0.0397	0.0459	0.0532	0.0619	0.0714	0.0813	0.0907
x1 = 0.6088	0.0215	0.0262	0.0315	0.0373	0.0436	0.051	0.0597	0.0702	0.0816	0.0934
x1 = 0.6985	0.0328	0.04	0.0485	0.0584	0.0688	0.0798	0.0922	0.106	0.119	0.131
x1 = 0.7974	0.0314	0.039	0.0477	0.0571	0.0666	0.076	0.0854	0.0948	0.105	0.118
x1 = 0.9001	0.0329	0.0421	0.0528	0.0645	0.0778	0.0929	0.11	0.127	0.146	0.167
x1 = 1	0.0324	0.0447	0.0614	0.0775	0.105	0.129	0.165	0.192	0.219	0.247

From the NIST ThermoML archive (doi:10.1021/je9002515)
